Experimental data from patent publication US12037458B2, “Process and premix for incorporating optical brighteners into a polymeric composition” (Elkem Silicones USA Corp., priority 2019, dated 2024).

Tests used:
[1] = Solubility of different optical brighteners in GLYMO, heated mixing (MM2); assay type: physicochemical; settings: for # of particles observed MM2 / Amount of undissolved OBA MM2 / Brightness MM2 / Form a clear solution? Mixing Method 2: in GLYMO; for # of particles observed MM2 / Amount of undissolved OBA MM2 / Brightness MM2: heated mixing 50° C. (MM2); for Form a clear solution? Mixing Method 2: heated mixing 50° C. under nitrogen (MM2)
[2] = Saturation of optical brightener in GLYMO; assay type: physicochemical
Description: To determine the saturation level of optical brightener in GLYMO, increasing amounts of Tinopal® OB CO were mixed with GLYMO (0.25%, 0.5%, 1.0%, 2.0%, 3.0% Tinopal® OB CO), heated at 50° C. for one hour and then cooled while mixing.

[3] = Solubility of different optical brighteners in GLYMO, RT mixing (MM1)
[4] = Solubility of Tinopal OB CO in different silanes / titanate (room-temperature mixing, black light inspection); settings: for Forms a clear solution? / Amount of undissolved Tinopal ® OB CO: 0.072 g Tinopal OB CO in 10 g of compound; for Forms a clear solution?: mixed at room temperature, stored overnight; for Amount of undissolved Tinopal ® OB CO: room temperature; for # of particles observed: OBA particles, naked eye under black light; for Brightness: drop of mixture between glass plates under black light; for Solubility of Tinopal OB CO in the compound (in words): summary of Table 2
[5] = heated at 50° C. for one hour, cooled while mixing

# of particles observed MM2 [1]	Brightness MM2 [1]	Form a clear solution? Mixing Method 2 [1]	Compound	Amount of undissolved OBA MM2 [1]	Amount of undissolved OBA MM1 ([3]; in GLYMO, RT mixing (MM1))	Amount of undissolved optical brightener ([3]; in GLYMO, room temperature)	Forms a clear solution? [4]	Amount of undissolved Tinopal ® OB CO [4]	# of particles observed [4]	Brightness [4]	Solubility of Tinopal OB CO in the compound (in words) [4]	other results
zero	high	Yes	CC(C)(C)c1ccc2oc(-c3ccc(-c4nc5cc(C(C)(C)C)ccc5o4)s3)nc2c1 [Tinopal ® OB CO]	Zero	low	low	–	–	–	–	–	Effect of heating (MM2) on solubility in GLYMO ([1]; MM2 versus MM1): improved the solubility; Amount of undissolved OBA MM2 ([1]; listed as Tinopal® OB CO): no undissolved particles; Concentration in GLYMO at which homogenously distributed [2, 5]: less than 1.0%; Concentration in GLYMO at which visible particles (agglomerates) were present [2, 5]: ≥ 1.0%; Average particle size of visible particles (agglomerates) ([2]; in GLYMO at concentrations of 1.0% or greater): ≥ 50 μm
>300	high	no	C(=Cc1ccc(-c2nc3ccccc3o2)cc1)c1ccc(-c2nc3ccccc3o2)cc1 [Benetex ® OB-1 HP, benzoxazole, 2,2′-(1,2-ethenediyldi-4,1-phenylene)bis-]	–	–	–	–	–	–	–	–	–
>100	low	no	O=S(=O)(O)c1ccccc1C=Cc1ccc(-c2ccc(C=Cc3ccccc3S(=O)(=O)O)cc2)cc1 [Benetex ® OB-M1, benzenesulfonic acid, 2,2′-([1,1′-biphenyl]-4,4′-diyldi-2,1-ethenediyl)bis-]	–	–	–	–	–	–	–	–	–

The next lines start with the molecule.

Compound	# of particles observed MM2 [1]	Brightness MM2 [1]	Form a clear solution? Mixing Method 2 [1]	Amount of undissolved OBA MM2 [1]	Amount of undissolved OBA MM1 ([3]; in GLYMO, RT mixing (MM1))	Amount of undissolved optical brightener ([3]; in GLYMO, room temperature)	Forms a clear solution? [4]	Amount of undissolved Tinopal ® OB CO [4]	# of particles observed [4]	Brightness [4]	Solubility of Tinopal OB CO in the compound (in words) [4]	other results
C=C[Si](OC)(OC)OC [VTMO, vinyltrimethoxysilane]	–	–	–	–	–	–	Yes	low	0	high	relatively good solubility	–
C=C(C)C(=O)OCCC[Si](OC)(OC)OC [MEMO]	–	–	–	–	–	–	Yes	zero	0	high	relatively good solubility	–
CCN(CC)c1nc(Nc2ccc(C=Cc3ccc(Nc4nc(Nc5cc(S(=O)(=O)[O-])ccc5S(=O)(=O)[O-])nc(N(CC)CC)n4)cc3S(=O)(=O)[O-])c(S(=O)(=O)[O-])c2)nc(Nc2cc(S(=O)(=O)[O-])ccc2S(=O)(=O)[O-])n1.[Na+].[Na+].[Na+].[Na+].[Na+].[Na+] [Tinopal ® SFP]	10-20	low	No	Low	high	high	–	–	–	–	–	Forms a clear solution? ([3]; 0.072 g optical brightener in 10 g GLYMO, room temperature): No; # of particles observed MM1 ([3]; in GLYMO, RT mixing (MM1)): >300; Brightness MM1 ([3]; in GLYMO, RT mixing (MM1)): low; Form a clear solution? Mixing Method 1 ([3]; in GLYMO, RT mixing (MM1)): no; # of particles observed ([3]; in GLYMO, naked eye under black light): >300; Brightness ([3]; in GLYMO, under black light): low
